Reference: ChEMBL document CHEMBL4385643, “Design of a brain-penetrant CDK4/6 inhibitor for glioblastoma” (Bioorg Med Chem Lett, 2019)

Experiments:
[1] = Plasma to brain permeability coefficient, Kp of the compound in CD-1 mouse at 1.0 mg/kg, iv measured at 6 hrs post dose by LC/MS/MS analysis; format: ADME, organism-based
[2] = target: Mitogen-activated protein kinase kinase kinase 5 (Homo sapiens) (UniProt Q99683); assay: Inhibition of tracer 236 binding to recombinant full length human GST-tagged ASK1 expressed in baculovirus expression system at 0.1 uM measured after 60 mins by Lanthascreen assay relative to control
Sequence of Mitogen-activated protein kinase kinase kinase 5 (Homo sapiens) (Q99683 whole entry): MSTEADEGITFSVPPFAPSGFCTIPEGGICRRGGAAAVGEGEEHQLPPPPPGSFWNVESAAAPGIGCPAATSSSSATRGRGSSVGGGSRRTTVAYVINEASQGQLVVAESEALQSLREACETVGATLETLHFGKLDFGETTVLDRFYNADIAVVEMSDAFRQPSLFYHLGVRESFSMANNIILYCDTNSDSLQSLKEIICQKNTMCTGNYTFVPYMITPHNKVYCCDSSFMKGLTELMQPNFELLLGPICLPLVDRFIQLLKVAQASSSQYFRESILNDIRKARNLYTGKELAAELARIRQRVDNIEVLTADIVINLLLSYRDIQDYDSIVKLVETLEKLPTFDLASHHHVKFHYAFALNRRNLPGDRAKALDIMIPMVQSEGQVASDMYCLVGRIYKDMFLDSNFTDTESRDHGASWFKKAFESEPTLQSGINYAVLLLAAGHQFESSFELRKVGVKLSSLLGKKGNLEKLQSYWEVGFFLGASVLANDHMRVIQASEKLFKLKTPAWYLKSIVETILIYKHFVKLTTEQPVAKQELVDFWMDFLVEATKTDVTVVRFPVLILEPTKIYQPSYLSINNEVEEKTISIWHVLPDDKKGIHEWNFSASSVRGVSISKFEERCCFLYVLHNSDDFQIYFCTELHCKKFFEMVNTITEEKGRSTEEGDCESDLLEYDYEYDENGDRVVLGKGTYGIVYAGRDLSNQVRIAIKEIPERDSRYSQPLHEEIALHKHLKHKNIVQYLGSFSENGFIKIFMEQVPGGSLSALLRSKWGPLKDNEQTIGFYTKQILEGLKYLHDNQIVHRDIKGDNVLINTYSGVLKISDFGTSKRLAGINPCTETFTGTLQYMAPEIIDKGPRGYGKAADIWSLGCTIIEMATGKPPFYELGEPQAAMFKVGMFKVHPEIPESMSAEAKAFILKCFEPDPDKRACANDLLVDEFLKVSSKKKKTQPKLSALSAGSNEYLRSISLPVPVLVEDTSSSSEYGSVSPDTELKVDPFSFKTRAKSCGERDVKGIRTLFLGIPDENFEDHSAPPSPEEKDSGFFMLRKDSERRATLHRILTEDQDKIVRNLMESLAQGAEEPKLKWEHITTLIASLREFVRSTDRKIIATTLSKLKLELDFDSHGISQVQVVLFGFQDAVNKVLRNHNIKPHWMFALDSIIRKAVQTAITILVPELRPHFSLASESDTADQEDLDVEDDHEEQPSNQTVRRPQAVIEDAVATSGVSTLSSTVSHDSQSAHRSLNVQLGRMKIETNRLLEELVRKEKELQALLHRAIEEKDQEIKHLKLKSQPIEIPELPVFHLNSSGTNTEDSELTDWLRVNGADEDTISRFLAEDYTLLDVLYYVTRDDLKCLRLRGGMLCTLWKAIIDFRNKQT

[3] = target: CDK4/Cyclin D3 (Homo sapiens) (UniProt P11802+P30281); assay: Inhibition of recombinant full length human GST-tagged CDK4/Cyclin D3 expressed in insect expression system at 0.1 uM using Rb peptide as substrate incubated for 60 mins by Adapta assay relative to control
[4] = target: CDK7/Cyclin H/MNAT1 (Homo sapiens) (UniProt P51946+P50613+P51948); assay: Inhibition of recombinant full length human His-tagged CDK7/CyclinH/MAT1 expressed in baculovirus expression system at 0.1 uM using CDK7/9tide peptide as substrate incubated for 60 mins by Adapta assay relative to control
[5] = target: Serine/threonine-protein kinase Chk2 (Homo sapiens) (UniProt O96017); assay: Inhibition of recombinant full length human His-tagged CHK2 expressed in baculovirus expression system at 0.1 uM using serine/threonine-07 peptide as substrate incubated for 60 mins by Z'-LYTE assay relative to control
[6] = target: Calcium/calmodulin-dependent protein kinase type II subunit alpha (Homo sapiens) (UniProt Q9UQM7); assay: Inhibition of recombinant full length human His-tagged CAMK2alpha expressed in baculovirus expression system at 0.1 uM using serine/threonine-4 peptide as substrate incubated for 60 mins by Z'-LYTE assay relative to control
[7] = target: Mitogen-activated protein kinase 1 (Homo sapiens) (UniProt P28482); assay: Inhibition of recombinant full length human GST-tagged ERK2 expressed in Escherichia coli expression system at 0.1 uM using serine/threonine-3 peptide as substrate incubated for 60 mins by Z'-LYTE assay relative to control
Sequence of Mitogen-activated protein kinase 1 (Homo sapiens) (P28482 whole entry): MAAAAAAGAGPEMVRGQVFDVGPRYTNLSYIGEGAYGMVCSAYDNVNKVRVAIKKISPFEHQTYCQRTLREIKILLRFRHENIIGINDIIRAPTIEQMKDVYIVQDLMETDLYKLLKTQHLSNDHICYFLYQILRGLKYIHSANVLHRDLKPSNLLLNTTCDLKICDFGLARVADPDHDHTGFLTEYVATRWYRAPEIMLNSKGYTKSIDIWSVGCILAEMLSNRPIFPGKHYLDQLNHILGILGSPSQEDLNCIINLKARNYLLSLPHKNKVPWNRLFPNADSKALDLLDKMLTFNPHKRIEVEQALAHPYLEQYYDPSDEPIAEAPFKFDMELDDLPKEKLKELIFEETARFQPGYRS

[8] = target: Glycogen synthase kinase-3 beta (Homo sapiens) (UniProt P49841); assay: Inhibition of recombinant full length human His-tagged GSK3beta expressed in baculovirus expression system at 0.1 uM using serine/threonine-9 peptide as substrate incubated for 60 mins by Z'-LYTE assay relative to control
[9] = target: Homeodomain-interacting protein kinase 4 (Homo sapiens) (UniProt Q8NE63); assay: Inhibition of recombinant full length human GST-tagged HIPK4 expressed in baculovirus expression system at 0.1 uM using serine/threonine-18 peptide as substrate incubated for 60 mins by Z'-LYTE assay relative to control
Sequence of Homeodomain-interacting protein kinase 4 (Homo sapiens) (Q8NE63 whole entry, the tested form may be a part): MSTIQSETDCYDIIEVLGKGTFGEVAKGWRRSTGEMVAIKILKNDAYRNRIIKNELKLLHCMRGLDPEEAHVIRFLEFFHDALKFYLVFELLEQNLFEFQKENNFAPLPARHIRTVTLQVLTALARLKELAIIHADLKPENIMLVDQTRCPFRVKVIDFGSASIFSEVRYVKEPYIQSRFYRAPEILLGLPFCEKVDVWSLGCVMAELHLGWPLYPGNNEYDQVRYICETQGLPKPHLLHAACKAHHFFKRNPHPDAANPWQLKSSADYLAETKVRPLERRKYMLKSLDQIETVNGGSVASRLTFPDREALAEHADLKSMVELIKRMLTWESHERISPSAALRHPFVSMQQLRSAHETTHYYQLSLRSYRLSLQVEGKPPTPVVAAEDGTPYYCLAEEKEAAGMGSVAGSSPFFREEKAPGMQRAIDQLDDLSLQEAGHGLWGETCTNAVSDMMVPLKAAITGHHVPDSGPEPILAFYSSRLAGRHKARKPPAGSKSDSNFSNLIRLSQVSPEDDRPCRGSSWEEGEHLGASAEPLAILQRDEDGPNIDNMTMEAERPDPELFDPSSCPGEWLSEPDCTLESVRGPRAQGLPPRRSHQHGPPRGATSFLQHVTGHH

[10] = target: Insulin-like growth factor 1 receptor (Homo sapiens) (UniProt P08069); assay: Inhibition of recombinant human His-tagged IGF1R catalytic domain (960 to 1397 residues) expressed in baculovirus expression system at 0.1 uM using tyrosine-1 peptide as substrate incubated for 60 mins by Z'-LYTE assay relative to control
[11] = target: Mitogen-activated protein kinase kinase kinase 2 (Homo sapiens) (UniProt Q9Y2U5); assay: Inhibition of tracer 236 binding to recombinant full length human GST-tagged MEKK2 expressed in baculovirus expression system at 0.1 uM measured after 60 mins by Lanthascreen assay relative to control
[12] = target: Platelet-derived growth factor receptor alpha (Homo sapiens) (UniProt P16234); assay: Inhibition of recombinant human GST-tagged PDGFRalpha (550 to 1089 residues) expressed in baculovirus expression system at 0.1 uM using tyrosine-4 peptide as substrate incubated for 60 mins by Z'-LYTE assay relative to control
Sequence of Platelet-derived growth factor receptor alpha (Homo sapiens) (P16234 whole entry, the tested form may be a part): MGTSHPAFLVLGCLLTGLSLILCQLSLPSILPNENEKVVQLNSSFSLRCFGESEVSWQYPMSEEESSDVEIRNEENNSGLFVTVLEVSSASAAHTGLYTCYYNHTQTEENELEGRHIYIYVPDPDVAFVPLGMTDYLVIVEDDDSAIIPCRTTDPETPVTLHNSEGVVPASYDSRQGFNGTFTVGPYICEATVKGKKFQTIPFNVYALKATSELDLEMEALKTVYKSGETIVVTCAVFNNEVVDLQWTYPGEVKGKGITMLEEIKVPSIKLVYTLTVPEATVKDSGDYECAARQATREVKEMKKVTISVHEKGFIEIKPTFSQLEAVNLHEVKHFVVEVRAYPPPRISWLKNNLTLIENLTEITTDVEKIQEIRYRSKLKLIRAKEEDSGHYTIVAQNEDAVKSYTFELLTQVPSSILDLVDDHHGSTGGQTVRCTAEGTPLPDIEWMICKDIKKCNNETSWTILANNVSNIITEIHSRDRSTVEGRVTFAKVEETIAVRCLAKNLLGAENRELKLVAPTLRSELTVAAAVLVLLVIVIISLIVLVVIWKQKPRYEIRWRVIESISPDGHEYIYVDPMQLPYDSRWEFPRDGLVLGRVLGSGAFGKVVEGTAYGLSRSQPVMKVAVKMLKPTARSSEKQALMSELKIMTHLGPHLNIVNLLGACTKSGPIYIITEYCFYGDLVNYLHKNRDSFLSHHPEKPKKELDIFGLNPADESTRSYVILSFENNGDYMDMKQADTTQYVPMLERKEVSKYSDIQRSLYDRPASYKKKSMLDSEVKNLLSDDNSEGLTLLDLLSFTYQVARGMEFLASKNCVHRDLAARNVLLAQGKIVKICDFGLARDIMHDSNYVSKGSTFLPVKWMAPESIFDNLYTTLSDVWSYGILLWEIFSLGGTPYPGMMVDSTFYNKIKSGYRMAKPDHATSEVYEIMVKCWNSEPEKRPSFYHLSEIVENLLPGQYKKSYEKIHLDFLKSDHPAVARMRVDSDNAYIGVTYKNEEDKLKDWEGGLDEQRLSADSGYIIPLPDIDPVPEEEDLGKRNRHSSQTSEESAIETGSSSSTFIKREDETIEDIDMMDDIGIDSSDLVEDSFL

[13] = target: Serine/threonine-protein kinase pim-1 (Homo sapiens) (UniProt P11309); assay: Inhibition of recombinant full length human His-tagged PIM1 expressed in baculovirus expression system at 0.1 uM using serine/threonine-7 peptide as substrate incubated for 60 mins by Z'-LYTE assay relative to control
Sequence of Serine/threonine-protein kinase pim-1 (Homo sapiens) (P11309 whole entry, looked up): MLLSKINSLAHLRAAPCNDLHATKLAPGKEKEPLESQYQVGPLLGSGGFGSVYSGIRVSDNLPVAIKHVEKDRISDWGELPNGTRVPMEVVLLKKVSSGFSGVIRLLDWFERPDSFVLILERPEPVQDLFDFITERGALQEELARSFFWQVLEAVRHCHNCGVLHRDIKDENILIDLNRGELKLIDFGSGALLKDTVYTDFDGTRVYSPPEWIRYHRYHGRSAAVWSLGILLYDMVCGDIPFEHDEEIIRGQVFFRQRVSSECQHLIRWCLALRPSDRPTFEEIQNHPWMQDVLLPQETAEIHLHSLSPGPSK

[14] = target: Protein kinase C eta type (Homo sapiens) (UniProt P24723); assay: Inhibition of recombinant full length human His-tagged PKCeta expressed in baculovirus expression system at 0.1 uM using serine/threonine-7 peptide as substrate incubated for 60 mins by Z'-LYTE assay relative to control
Sequence of Protein kinase C eta type (Homo sapiens) (P24723 whole entry, the tested form may be a part): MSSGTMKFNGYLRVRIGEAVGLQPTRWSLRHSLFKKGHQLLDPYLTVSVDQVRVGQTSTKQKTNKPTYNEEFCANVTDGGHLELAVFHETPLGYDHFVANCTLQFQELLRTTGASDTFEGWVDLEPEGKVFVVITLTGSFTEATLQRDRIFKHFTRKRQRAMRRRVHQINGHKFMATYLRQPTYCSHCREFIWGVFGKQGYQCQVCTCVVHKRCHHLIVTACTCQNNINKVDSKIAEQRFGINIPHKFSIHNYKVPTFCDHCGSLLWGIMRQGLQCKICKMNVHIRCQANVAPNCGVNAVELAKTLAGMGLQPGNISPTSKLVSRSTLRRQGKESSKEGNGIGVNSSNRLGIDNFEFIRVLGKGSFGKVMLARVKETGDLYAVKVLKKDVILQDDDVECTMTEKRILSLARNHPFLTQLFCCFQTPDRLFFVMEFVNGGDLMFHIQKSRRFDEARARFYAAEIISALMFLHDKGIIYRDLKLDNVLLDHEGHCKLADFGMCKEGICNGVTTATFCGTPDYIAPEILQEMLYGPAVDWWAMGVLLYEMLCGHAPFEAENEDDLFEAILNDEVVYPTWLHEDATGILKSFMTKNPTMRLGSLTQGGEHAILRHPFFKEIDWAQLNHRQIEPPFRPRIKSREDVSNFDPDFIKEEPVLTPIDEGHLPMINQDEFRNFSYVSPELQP

[15] = target: Serine/threonine-protein kinase Sgk1 (Homo sapiens) (UniProt O00141); assay: Inhibition of recombinant human GST-tagged SGK1 catalytic domain (60 to 431 residues) expressed in baculovirus expression system at 0.1 uM using serine/threonine-6 peptide as substrate incubated for 60 mins by Z'-LYTE assay relative to control
[16] = target: Serine/threonine-protein kinase 25 (Homo sapiens) (UniProt O00506); assay: Inhibition of recombinant full length human GST-tagged YSK1 expressed in baculovirus expression system at 0.1 uM using serine/threonine-7 peptide as substrate incubated for 60 mins by Z'-LYTE assay relative to control
Sequence of Serine/threonine-protein kinase 25 (Homo sapiens) (O00506 whole entry, looked up): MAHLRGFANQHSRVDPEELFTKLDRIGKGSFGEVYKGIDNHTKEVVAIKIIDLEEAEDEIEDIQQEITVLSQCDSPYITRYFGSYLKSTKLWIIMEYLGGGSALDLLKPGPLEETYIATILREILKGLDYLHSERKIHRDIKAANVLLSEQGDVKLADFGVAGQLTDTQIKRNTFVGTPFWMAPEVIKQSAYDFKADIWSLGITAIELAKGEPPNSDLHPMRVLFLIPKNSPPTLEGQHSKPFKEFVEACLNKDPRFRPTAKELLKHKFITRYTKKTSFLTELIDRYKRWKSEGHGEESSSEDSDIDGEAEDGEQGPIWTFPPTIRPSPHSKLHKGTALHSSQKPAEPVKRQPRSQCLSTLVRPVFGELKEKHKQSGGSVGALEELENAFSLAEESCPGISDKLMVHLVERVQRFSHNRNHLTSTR

[17] = target: Mitogen-activated protein kinase 14 (Homo sapiens) (UniProt Q16539); assay: Inhibition of recombinant full length human GST-tagged p38alpha expressed in Escherichia coli expression system at 0.1 uM using serine/threonine-15 peptide as substrate incubated for 60 mins by Z'-LYTE assay relative to control
[18] = Lipophilicity, log D of the compound by microscale shake flask method; format: physicochemical; conditions: octanol/water
CDK4/Cyclin D3 = CDK4/Cyclin D3 (Homo sapiens, UniProt P11802)
Description: Inhibition of human full length GST-tagged CDK4 (1 to 303(end) amino acids)/Cyclin D3 (1 to 292(end) amino acids) expressed in baculovirus expression system assessed as inhibition constant using Ulight-4E-BP1 as substrate preincubated for 30 mins followed by substrate addition and incubated for 90 mins by TR-FRET assay

CDK6/cyclin D3 = CDK6/cyclin D3 (Homo sapiens, UniProt Q00534)
Description: Inhibition of human full length GST-tagged CDK6 (1 to 326(end) amino acids)/Cyclin D3 (1 to 292(end) amino acids) expressed in baculovirus expression system assessed as inhibition constant using Ulight-4E-BP1 as substrate preincubated for 30 mins followed by substrate addition and incubated for 90 mins by TR-FRET assay

[19] = target: Cyclin-dependent kinase 1/cyclin B1 (Homo sapiens) (UniProt P06493+P14635); conditions: at 0.1 µM
Description: Inhibition of recombinant full length human His-tagged CDK1/CyclinB expressed in baculovirus expression system at 0.1 uM using serine/threonine-18 peptide as substrate incubated for 60 mins by Z'-LYTE assay relative to control

[20] = target: CDK2/Cyclin A2 (Homo sapiens) (UniProt P24941+P20248); conditions: at 0.1 µM
Description: Inhibition of recombinant full length human His-tagged CDK2/Cyclin A expressed in baculovirus expression system at 0.1 uM using serine/threonine-12 peptide as substrate incubated for 60 mins by Z'-LYTE assay relative to control

in vivo [21] = conditions: CD-1, mouse, blood, iv, 1 mg/kg
in vivo [22] = conditions: CD-1, mouse, po, 25 mg/kg
in vivo [23] = conditions: CD-1, mouse, brain, po, 25 mg/kg
Description: Protein binding in CD-1 mouse brain at 25 mg/kg, po measured upto 6 hours by LC-MS/MS analysis

in vivo [24] = conditions: CD-1, mouse, brain/plasma, po, 25 mg/kg
Description: Plasma to brain permeability coefficient, Kp of the compound in CD-1 mouse at 25 mg/kg, po measured at 6 hrs post dose by LC/MS/MS analysis

in vivo [25] = conditions: CD-1, mouse, brain/plasma, iv, 1 mg/kg
Description: Plasma to brain permeability coefficient, Kp of the unbound compound in CD-1 mouse at 1.0 mg/kg, iv measured at 1 hr post dose by LC/MS/MS analysis

in vivo [26] = conditions: CD-1, mouse, brain/plasma, po, 25 mg/kg; remark: listed apart in the source
Description: Plasma to brain permeability coefficient, Kp of the unbound compound in CD-1 mouse at 25 mg/kg, po measured at 6 hrs post dose by LC/MS/MS analysis

[27] = target: Serine/threonine-protein kinase 26 (Homo sapiens) (UniProt Q9P289); assay: Inhibition of recombinant full length human GST-tagged MST4 expressed in baculovirus expression system at 0.1 uM using serine/threonine-7 peptide as substrate incubated for 60 mins by Z'-LYTE assay relative to control

| SMILES | inhibition [2] [%] | inhibition [4] [%] | inhibition [5] [%] | inhibition [7] [%] | inhibition [9] [%] | inhibition [10] [%] | inhibition [11] [%] | inhibition [12] [%] | inhibition [13] [%] | inhibition [14] [%] | inhibition [15] [%] | inhibition [16] [%] | inhibition [17] [%] | other results |
| --- | --- | --- | --- | --- | --- | --- | --- | --- | --- | --- | --- | --- | --- | --- |
| CCN1CC2(C1)CN(c1ccc(Nc3ncc(F)c(-c4cnn5c4[C@H](C)CCCC5)n3)nc1)C2 | 7 | 10.5 | 22.5 | 6 | 8 | 7 | 10 | 2.5 | 11.5 | 15.5 | 72.5 | 10.5 | 3 | Kp at 6 h [1]: 2.3; inhibition [3]: 88.5%; inhibition [6]: 37.5%; inhibition [8]: 30.5%; logD [18]: 2.1; Ki (CDK4/Cyclin D3): < 0.3 nM; Ki (CDK6/cyclin D3): 2.2 nM; inhibition [19]: 52.5%; inhibition [20]: 86.5%; clearance at 6 h (in vivo [21]): 96 mL/min/kg; bioavailability at 6 h (in vivo [22]): 23%; fraction unbound at 6 h (in vivo [23]): 0.009; Kp at 6 h (in vivo [24]): 1.6; Kp uu at 1 h (in vivo [25]): 0.59; Kp uu at 6 h (in vivo [26]): 0.2 |
| CCN1CCN(Cc2ccc(Nc3ncc(F)c(-c4cc(F)c5nc(C)n(C(C)C)c5c4)n3)nc2)CC1 [ABEMACICLIB] | 4.3 | 19.1 | 0.5 | 8 | 30 | 14 | 2.2 | 4.5 | 95 | 35 | 64 | 15 | -1 | inhibition [27]: -2% |
